Structures are written as SMILES.

A word on the inhibition: it is how much of the control response was suppressed. Usually IC50 stands for the point on the concentration scale where inhibition reaches its midpoint.

Assay [1] has as its target T1, Protein kinase C delta type (Homo sapiens, UniProt Q05655). Kind of assay: Displacement of [3H]PDBu from recombinant human PKCdelta C1 domain expressed in baculovirus infected insect Sf9 cells assessed as residual radiolabeled binding at 100 uM after 10 mins by liquid scintillation counting analysis relative to control.
Target sequence in this assay (Q05655 whole entry, looked up, the tested form may be a part): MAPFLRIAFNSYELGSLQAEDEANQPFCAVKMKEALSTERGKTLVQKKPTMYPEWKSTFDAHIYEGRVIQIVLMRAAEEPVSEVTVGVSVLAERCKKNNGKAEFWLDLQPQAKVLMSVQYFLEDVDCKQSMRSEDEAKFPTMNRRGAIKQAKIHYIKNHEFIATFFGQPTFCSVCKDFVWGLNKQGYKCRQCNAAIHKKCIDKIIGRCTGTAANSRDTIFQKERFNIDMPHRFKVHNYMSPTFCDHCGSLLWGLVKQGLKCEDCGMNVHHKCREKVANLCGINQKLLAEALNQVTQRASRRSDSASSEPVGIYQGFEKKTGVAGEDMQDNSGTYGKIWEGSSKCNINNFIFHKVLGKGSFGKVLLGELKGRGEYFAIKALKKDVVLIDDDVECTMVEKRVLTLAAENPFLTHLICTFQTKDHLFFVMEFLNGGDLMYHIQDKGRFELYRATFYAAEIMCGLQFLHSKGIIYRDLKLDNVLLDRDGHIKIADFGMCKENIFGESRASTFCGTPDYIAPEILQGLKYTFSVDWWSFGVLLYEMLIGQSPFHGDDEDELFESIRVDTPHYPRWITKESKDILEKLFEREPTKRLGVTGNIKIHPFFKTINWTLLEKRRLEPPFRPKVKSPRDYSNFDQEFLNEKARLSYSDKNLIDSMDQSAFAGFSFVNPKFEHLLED
The target of assay [2] is T2, Protein kinase C alpha type (Homo sapiens, UniProt P17252). The assay can be described thus: Displacement of [3H]PDBu from recombinant human PKCalpha C1 domain expressed in baculovirus infected insect Sf9 cells after 10 mins by liquid scintillation counting analysis. On the technique in general: Displacement assays read how much labelled ligand stays bound in the presence of the test substance.

Assay [3] has as its target T1, Protein kinase C delta type. The assay can be described thus: Displacement of [3H]PDBu from recombinant human PKCdelta C1 domain expressed in baculovirus infected insect Sf9 cells after 10 mins by liquid scintillation counting analysis.
For assay [4], the target named is T2, Protein kinase C alpha type. Kind of assay: Displacement of [3H]PDBu from recombinant human PKCalpha C1 domain expressed in baculovirus infected insect Sf9 cells assessed as residual radiolabeled binding at 100 uM after 10 mins by liquid scintillation counting analysis relative to control.
The target in assay [5] is T1, Protein kinase C delta type. Kind of assay: Displacement of [3H]PDBu from recombinant human PKCdelta C1 domain expressed in baculovirus infected insect Sf9 cells at 100 uM after 10 mins by liquid scintillation counting analysis relative to control.
Target sequence in this assay (Q05655 whole entry, looked up, the tested form may be a part): as the sequence (Q05655 whole entry, looked up, the tested form may be a part) above
Assay [6] deals with T2, Protein kinase C alpha type. The assay can be described thus: Displacement of [3H]PDBu from recombinant human PKCalpha C1 domain expressed in baculovirus infected insect Sf9 cells at 100 uM after 10 mins by liquid scintillation counting analysis relative to control.

Take `O=C(CC(CO)c1ccc(-c2ccccc2)cc1)OCc1ccccc1` (stereo not drawn): the Residual [3H]PDBu binding in assay [1] was 56.7%. For the same molecule, the inhibition result in assay [2] and in assay [3] was “Dose-dependent effect” each time. In addition, in assay [4], the Activity was 64.4%. Take `CN(Cc1ccccc1)C(=O)CC(CO)c1ccc(-c2ccccc2)cc1` (stereo not drawn): the Activity in assay [4] is 76.1%.

For the molecule `O=C(CC(CO)c1ccc(-c2ccccc2)cc1)N1CCOCC1` (stereo not drawn), in assay [4], the Activity worked out at 86.6%. With `O=C(Cc1ccccc1)OCC(CO)c1ccc(OCc2ccccc2)cc1` (racemic) [listing 1 of 2 here], the IC50 in assay [2] is 73.9 µM; in assay [3] it was 39.9 µM.

Regarding `CC(C)(C)C(=O)OCC(CO)c1ccc(OCc2ccccc2)cc1` (single isomer, unassigned), the inhibition in assay [5] and in assay [6] was 36.3% each time. `CCN(CC)C(=O)CC(CO)c1ccc(-c2ccccc2)cc1` (stereo not drawn): the Activity in assay [4] came out at 84.4%. For `O=C(Cc1ccccc1)OCC(CO)c1ccc(OCc2ccccc2)cc1` (racemic) [listing 2 of 2 here], the Residual [3H]PDBu binding in assay [1] amounted to 34.8%. Besides, in assay [2], the inhibition entry is “Dose-dependent effect”. In addition, the Activity in assay [4] was found to be 51.3%. For `CN(Cc1ccccc1)C(=O)CC(CO)c1cccc(OCc2ccccc2)c1` (stereo not drawn), in assay [4], the Activity worked out at 72.4%.

With `O=C(CC(CO)c1ccc(OCc2ccccc2)cc1)OCc1ccccc1` (stereo not drawn), the Residual [3H]PDBu binding in assay [1] was found to be 61.6%. Moreover, the inhibition entry in assay [2] and in assay [3] was “Dose-dependent effect” throughout. Moreover, the Activity in assay [4] turned out to be 73.9%. In the case of `CCN(CC)C(=O)CC(CO)c1cccc(OCc2ccccc2)c1` (stereo not drawn), the Activity in assay [4] is 90%. As to `CC(C)(C)C(=O)OCC(CO)c1ccc(OCc2ccccc2)cc1` (racemic) [listing 1 of 2 here], the Residual [3H]PDBu binding in assay [1] was 29.3%. Moreover, the Activity in assay [4] turned out to be 41.6%.

`CCN(CC)C(=O)CC(CO)c1ccc(OCc2ccccc2)cc1` (stereo not drawn): in assay [4], the Activity stood at 100%. Consider `CC(C)(C)C(=O)OCC(CO)c1ccc(OCc2ccccc2)cc1` (racemic) [listing 2 of 2 here], for which the results for the IC50 in assay [2] and in assay [3] were 37.5 µM and 33.2 µM, respectively. For the molecule `O=C(Cc1ccccc1)OCC(CO)c1ccc(OCc2ccccc2)cc1` (single isomer, unassigned; (-)), the inhibition in assay [5] and in assay [6] was 26.3% each time. Take `O=C(CC(CO)c1ccc(OCc2ccccc2)cc1)N1CCOCC1` (stereo not drawn): in assay [4], the Activity worked out at 107%. For the molecule `O=C(CC(CO)c1cccc(OCc2ccccc2)c1)N1CCOCC1` (stereo not drawn), the Activity in assay [4] amounted to 99.7%. As for `CC(C)(C)C(=O)OCC(CO)c1ccc(OCc2ccccc2)cc1` (single isomer, unassigned; (+)), the inhibition in assay [5] and in assay [6] was 34.6% in each case.

In the case of `O=C(Cc1ccccc1)OCC(CO)c1ccc(OCc2ccccc2)cc1` (single isomer, unassigned), the inhibition in assay [5] and in assay [6] was 27.3% throughout. On to `CN(Cc1ccccc1)C(=O)CC(CO)c1ccc(OCc2ccccc2)cc1` (stereo not drawn), for which the Activity in assay [4] was 80.6%. In the case of `O=C(CC(CO)c1cccc(OCc2ccccc2)c1)OCc1ccccc1` (stereo not drawn), the Residual [3H]PDBu binding in assay [1] stood at 52.5%. In addition, the inhibition entry in assay [2] and in assay [3] was “Dose-dependent effect” in each case. Moreover, the Activity in assay [4] is 67.4%.

The values above are taken from ChEMBL document CHEMBL3632532, “Beyond the affinity for protein kinase C: exploring 2-phenyl-3-hydroxypropyl pivalate analogues as C1 domain-targeting ligands” (Medchemcomm, 2015).
